Results: US20210361680A1, “INOSITOL-BASED IMMUNOTHERAPIES” (NormOxys, Inc., priority 2018, published 2021)
Entries after “also recorded” stand apart in the source; their conditions may differ.

Columns and labels:
[1] = system: NK cells; assay: Flow cytometry of NK cells in B16F10Luc tumors, C57BL6 mice; format: in vivo, mouse
Description: (§1) Murine B16F10 cells were implanted in C57BL6 or on Rj:NMRI-nu nude mice leg subcutaneously as we described previously by injecting a spheroid plug of 10^5 cells in 100 μl Matrigel (BD Biosciences).
(§2) ITPP was injected intraperitoneally (1.5 g/kg: in saline) twice a week over 3 weeks. It was started on day7 and repeated on day 8 post tumor inoculation (day 0). The following serial treatments were applied on days 15 and 16, 21 and 22. Tumors were extracted and weighted at the indicated times.
(§3) Tumor samples were immediately transferred in to PBS on ice. Biopsies were cut into small pieces and filtered through cell strainer after being dissociated by collagenase/dispase (Gibco). The samples were depleted of erythrocytes by red blood lysis buffer (eBiosciences).
(§4) Single cell suspensions were stained with mAbs for 1 h at 4° C. Acquisition was performed by one to four color flow cytometry using FACS LSR (Becton Dickinson). Dead cells were excluded on scatter profile. Data were acquired using CellQuest software (Becton Dickinson) on at least 100,000 events. Data were expressed as dot plot or histogram when comparison of fluorescence intensity is needed.
(§5) The following directly conjugated rat anti-mouse mAbs were used for the FACS staining: CD45-PerCP, CD11b-APC, CCR4-PE, CCR5-PE, CCR7-PE, CCR1O-PE and CXCR4-PE were from BD Biosciences. CD49b-APC was from Biolegend. CD226-PE, CD4-FITC, CD25-APC, CD8a-FITC, PD-1-PE, CTLA-4-PE, PDL1-PE-Cy7, PDL2-FITC and CD47-APC were from eBiosciences. CD11c-FITC and GR1-FITC were from Milteny. CD206 was from Santa Cruz. We used anti-mouse Foxp3 staining set PE (eBioscience) for Foxp3 staining.

[2] = system: PD-1; assay: Flow cytometry of PD-1 expressing CD45+ cells in B16F10 melanoma; format: in vivo, mouse
Description: as §1, §2, §3, §4
(§6) The following directly conjugated rat anti-mouse mAbs were used for the FACS staining: CD45-PerCP, CD11b-APC, CCR4-PE, CCR5-PE, CCR7-PE, CCR1O-PE and CXCR4-PE were from BD Biosciences. CD49b-APC was from Biolegend. […]

[3] = system: CCR5; assay: Flow cytometry of CCR5 expression in the tumor site; format: in vivo, mouse
Description: as §1, §2, §3
(§7) In specified experiments, tumors were depleted from CD45+ and/or CD31+ cells by magnetic separation (Easy Sep magnet, StemCell Technologies Inc).
as §4, with “needed. […]” for “needed.”

[4] = system: CD45+CD11b+Gr1+ MDSCs; assay: Flow cytometry of MDSCs in B16F10 Luc melanoma; format: in vivo, mouse
Description: as §1, §2, §3, §4, §6

[5] = in vivo; cited from earlier work
[6] = system: CD45+CD4+CD25+FoxP3+ Treg cells; assay: Flow cytometry of Treg cells in B16F10Luc tumors; format: in vivo, mouse
Description: as §1, §2, §3, §4, §6

[7] = system: B16F10 melanoma cells; assay: Tumor growth of B16F10 melanoma in Rj:NMRI-nu nude mice under ITPP treatment; format: in vivo, mouse; settings: ITPP 1.5 g/kg intraperitoneally, day 23, versus controls
Description: (§8) Murine B16F10 cells were implanted in C57BL6 or on Rj:NMRI-nu nude mice leg subcutaneously by injecting a plug of 10^5 cells in 100 μl Matrigel (BD Biosciences).
as §1, §2

[8] = system: Treg cells; assay: Flow cytometry of Treg cells in 4T1 mammary carcinoma; format: in vivo, mouse; settings: 4T1 mammary carcinoma bearing BalbC mice
Description: (§9) 4T1murine mammary carcinoma (10^4 cells as spheroid plug in Matrigel) cells were injected in the mammary fat pad of BALBc/by mice.
as §2, §3, §4, §6

[9] = system: CXCR4; assay: Flow cytometry of CXCR4 expression in the tumor site; format: in vivo, mouse
Description: as §1, §2, §3, §7, §4, §5

[10] = system: immune cells (CD45+); assay: Flow cytometry of CD45+ immune cells in B16F10Luc tumors; format: in vivo, mouse; settings: ITPP-treated versus control mice
Description: as §1, §2, §3, §4, §6

[11] = system: 4T1 mammary carcinoma; assay: Tumor growth of 4T1 mammary carcinoma in BALB/c-by mice under ITPP treatment; format: in vivo, mouse
Description: as §9, §2

[12] = system: B16F10 melanoma cells; assay: Tumor growth of B16F10 melanoma in C57BL6 mice under ITPP treatment; format: in vivo, mouse; settings: day 23
Description: as §8, §1, §2

[13] = system: cells; settings: cited from earlier work
[14] = system: PD-L2; assay: Flow cytometry of PD-L2 expression in tumor cell populations; format: in vivo, mouse; settings: for reduction of the expression of PD-L2: compared with PD-L1
Description: as §1, §2, §3, §7, §4, §5

[15] = system: M1 (CD45+CD11c+CD206−) macrophages; assay: Flow cytometry of M1 macrophages in B16F10 Luc melanoma; format: in vivo, mouse
Description: as §1, §2, §3, §4, §6

[16] = system: activated NK cells; assay: Flow cytometry of activated NK cells in 4T1 mammary carcinoma; format: in vivo, mouse; settings: 4T1 cells bearing mice
Description: as §9, §2, §3, §4, §6

[17] = system: CCR7; assay: Flow cytometry of CCR7 expression in the tumor site; format: in vivo, mouse; settings: tumor cells
Description: as §1, §2, §3, §7
as §4, with “needed. […]” for “needed.”

[18] = system: NK cells; assay: Immunocytochemical labelling of NK cell infiltrate in B16F10 Luc tumors; format: in vivo, mouse; settings: B16F10 Luc tumors extracted on day 23; non-treated: NK cells stuck in the vessels
Description: as §1, §2
Tumor tissues were embedded in tissue freezing medium (Tissue-Tek; Sakura) and snap frozen in liquid nitrogen. Tumor cryosections were fixed and stained with mouse anti-CD31 (rat monoclonal IgG2a; eBiosciences), anti-CD49b (Rat IgM; BD Pharmingen) or anti-Firefly Luciferase (Rabbit IgG; Abcam) before tetramethyl rhodamine isothiocyanate or fluorescein isothiocyanate secondary antibodies were added. Nuclei were stained with bisbenzimide H 33258 (Sigma-Aldrich).

[19] = system: NK cells; assay: Flow cytometry of NK cells in B16F10Luc tumors, NRj:NMRI nude mice; format: in vivo, mouse; settings: B16F10-Luc tumors in nude mice
Description: as §1, §2, §3, §4, §6

[20] = system: CX3CR1; assay: Flow cytometry of CX3CR1 expression in the tumor site; format: in vivo, mouse; settings: endothelial enriched cell population
Description: as §1, §2, §3, §7, §4

[21] = system: PD-1; assay: Flow cytometry of PD-1 expressing CD45+ cells in 4T1 mammary carcinoma; format: in vivo, mouse
Description: as §9, §2, §3, §4, §6

[22] = system: CCR10; assay: Flow cytometry of CCR10 expression in the tumor site; format: in vivo, mouse
Description: as §1, §2, §3, §7, §4, §5

[23] = system: CTLA-4; assay: Flow cytometry of CTLA-4 expression among CD45+ cells; format: in vivo, mouse
Description: as §2, §3, §4
as §5, with “We used anti-mouse Foxp3 staining set PE (eBioscience) for Foxp3 staining.” left out

[24] = system: CD45+CD4+CCR4+ Th2 cells; assay: Flow cytometry of Th2 cells in B16F10 Luc melanoma; format: in vivo, mouse
Description: as §1, §2, §3, §4, §6

[25] = system: CD31+ endothelial cells; assay: Flow cytometry of CD31+ endothelial cells in B16F10Luc melanoma; format: in vivo, mouse; settings: treated versus non-treated tumors
Description: as §1, §2, §3, §4, §6

[26] = system: M2 (CD45+CD11c+CD206+) macrophages; assay: Flow cytometry of M2 macrophages in B16F10Luc melanoma; format: in vivo, mouse; settings: melanoma tumor site
Description: as §1, §2, §3, §4, §6

[27] = system: PD-L1; assay: Flow cytometry of PD-L1 expression in tumor cell populations; format: in vivo, mouse
Description: as §1, §2, §3, §7, §4, §5

[28] = system: CD47; assay: Flow cytometry of CD47 expression in B16F10 tumors; format: in vivo, mouse; settings: tumor B16F10 melanoma cells
Description: as §1, §2, §3, §4, §6

[29] = system: M2 (CD45+CD11c+CD206+) macrophages; assay: Flow cytometry of M2 macrophages in 4T1 mammary carcinoma; format: in vivo, mouse
Description: as §9, §2, §3, §4, §6

[30] = CD31+ endothelial cells of the tumor

O=P1(O)OC2C3OP(=O)(O)OP(=O)(O)OC3C3OP(=O)(O)OP(=O)(O)OC3C2OP(=O)(O)O1 (centres unmarked) [ITPP, myo-inositol tris pyrophosphate]
proportions of NK cells found in the tumor before and after ITPP treatments (R) ([1]; B16F10-Luc tumors in normal C57Bl6 mice): 2.25 | number of NK cells in the tumor site ([1]; CD45+CD49+ NK cells, B16F10Luc tumors, C57BL6 mice): doubled | numbers of activated (CD45+CD49b+CD226+) NK cells ([1]; melanoma bearing mice, after ITPP treatment): increase | CD45+PD-1+ cells among whole tumor populations [2]: increase; also recorded: enriched | CCR5 expression ([3]; CD45+ population): inverse effect | CCR5 expression ([3]; tumor cells): radical effect | MDSCs proportion in the tumor [4]: reduced | toxicity for the animals [5]: not to be toxic | proportions of CD45+CD4+CD25+FoxP3+ Treg cells [6]: very significantly decreased; also recorded: reduced | tumor size [7]: reduction of the tumor size; also recorded: half size of the controls | Treg cell numbers [8]: reducing effect; also recorded: reduced | CXCR4 expression ([9]; CD45+ cells): not affected | CXCR4 expression ([9]; endothelial enriched cell population): not affected | cells expressing CXCR4 ([9]; tumor cells): strongly reduced | proportion of immune cells (CD45+) in the tumor [10]: higher | mammary carcinoma reduction ([11]; 4T1, day 31, after arrest of treatment on day 21): up to 50% | tumor size ([11]; 4T1 mammary carcinoma in BALB/c-by mice, ITPP 1.5 g/kg intraperitoneally, day 31, versus controls): reduction of the tumor size; also recorded: half size of the controls | tumor size ([12]; B16F10 melanoma in normal C57BL6 mice, ITPP 1.5 g/kg intraperitoneally, versus controls): reduction of the tumor size; also recorded: half size of the controls | tumor growth ([12]; melanoma cells, treatments stopped on day 21): 50% | toxicity for cells treated separately [13]: not to be toxic | expression of PD-L2 [14, 30]: reduced and less | expression of PD-L2 ([14]; immune CD45+ cell population): strongly reduced | reduction of the expression of PD-L2 ([14]; separated CD45− cells): to a lesser extent | reduction of the expression of PD-L2 ([14]; whole tumor cell populations): to a lesser extent | numbers of macrophages expressing the M1 (CD45+CD11c+CD206−) phenotype [15]: tendency to increase; also recorded: tended to increase | recruitment of activated NK cells [16]: higher recruitment | CCR7 expression [17]: total reduction | NK cell (CD49b+) infiltrate in the tumor [18]: infiltrated the tumor mass | proportions of NK cells found in the tumor before and after ITPP treatments (R) [19]: 2.25 | expression of the fractalkine receptor CX3CR1 [20]: induced expression | CD45+PD-1+ cells among whole tumor populations [21]: increase; also recorded: enriched | cells expressing CCR10 ([22]; B16F10 cells): reduced | increase of cells expressing CCR10 (R) ([22]; endothelial cells enriched population): 2 | increase of cells expressing CCR10 (R) ([22]; immune cells (CD45+)): 10 | CTLA-4 expression [23]: No significant change | proportion of Th2 cells (CD45+CD4+CCR4+) in the tumor site [24]: decrease; also recorded: reduced | proportion of CD31+ endothelial cells [25]: higher; also recorded: increased | proportion of M2 (CD45+CD11c+CD206+) macrophages [26]: reduced; also recorded: decreased | expression of PD-L1 [27, 30]: considerably reduced and less | expression of PD-L1 ([27]; immune CD45+ cell population): strongly reduced | expression of PD-L1 ([27]; separated CD45− cells): clear reduction | expression of PD-L1 ([27]; whole tumor cell populations): clear reduction | intensity of CD47 expression [28]: reduced | proportion of M2 (CD45+CD11c+CD206+) macrophages [29]: reduced; also recorded: decreased
